Assays:
hESCs (HS401 cell line) = assay: Lipids and lipid derivatives: visual evaluation of morphology, size and thickness of undifferentiated colonies; type: cell-based, human; details: for morphology of the undifferentiated colonies (in words): in both hES medium and the present culture medium
Text: (§1) FIGS. 9A-9B show the morphology and differentiation stage of hESCs cultured in the present culture medium and in the presence of lipids and lipid derivatives. UD, PD and DIFF represent undifferentiated, partly differentiated and differentiated hESC colonies, respectively. FIG. 9A) HS401 cell line cultured in the present culture medium supplemented with different lipids and lipid derivatives. FIG. 9B) HS401 cell line cultured in control hES medium supplemented with different lipids and lipid derivatives.
Various lipids and lipid derivatives were tested in the culture medium (RegES) according to some embodiments of the present invention and in the conventional hES culture medium containing KO-SR (Knockout serum replacement, Invitrogen). General morphology, as well as the size and thickness of the undifferentiated colonies were evaluated before each passaging based on visual perceptions (Table 7).

[1] = tested on: hESC colonies (HS401 cell line); assay: Lipids and lipid derivatives: classification of hESC colonies as undifferentiated, partly differentiated, differentiated; type: cell-based, human
Text: as §1
Furthermore, the hESC colonies were classified into three categories; undifferentiated, partly differentiated and differentiated. Number of each colony type was calculated before each passaging. Later, a percentage value for each colony type of the total amount of colonies was calculated (FIG. 9).

[2] = tested on: human embryonic stem cells; assay: Effect of different vitamins on the undifferentiated growth of human embryonic stem cells; type: cell-based; details: for effect on undifferentiated growth / number of undifferentiated colonies (in words): retinol 20 μM, nicotinamide 5 mM and 10 mM, Vitamin Mix 1%
Description: The effect of different vitamins on the undifferentiated growth of human embryonic stem cells was tested by providing retinol (20 μM), nicotinamide (5 mM and 10 mM) or commercial Vitamin Mix (1%) containing nicotinamide but not retinol (MEM Vitamin Solution (100x), cat. No. 11120-037, provided by Gibco/Invitrogen) to human embryonic stem cells (Table 1). […] Vitamin Mix had no effect on the undifferentiated growth of embryonic stem cells.
Accordingly, the serum replacement according to some embodiments of the present invention is a xeno-free formulation comprising at least retinol. In some embodiments, the concentration range of retinol in the serum replacement is such that the final culture medium comprises from about 0.25 mg/l to about 0.5 mg/l, more specifically about 0.57 mg/l retinol. Accordingly, in embodiments wherein basal medium is to be supplemented with 20% (vol/vol) serum replacement, said serum replacement comprises retinol from about 1.25 mg/l to about 2.5 mg/l, more specifically about 2.85 mg/l.

[3] = tested on: hESCs (Regea 07/046, HS401); assay: Retinol: proliferation and expression of stem cell markers; type: cell-based, human
Description: FIG. 10A) Bright-field microscopic image of hESCs (Regea 07/046) at day 3 cultured in the present culture medium without retinol for 5 passages. FIG. 10B) Bright-field microscopic image of hESCs (Regea 07/046) at day 3 cultured in the present culture medium containing 2.0 μM retinol for 5 passages. The size of the colonies is larger in the presence of retinol when compared to the colonies cultured without retinol. Scale bar 500 μm. FIGS. 10C-D) Fluorescent microscopic image of hESCs (HS401) cultured in the present culture medium containing 2.0 μM retinol for 12 passages showing positive expression of
Nanog and TRA-1-81. Insets represent DAPI staining. Scale bar 200 μm. FIG. 10E) Cell proliferation analysis of hESC line Regea 07/046 cultured in the present culture medium without and in the presence of 0.5, 2.0 and 3.5 μM retinol for 10 passages. FIG. 10F) Quantitative RT-PCR analysis of Oct4, GDF3, DNMT3B, TDGF1 and Nanog expression in hESC line Regea 07/046 cultured in the present culture medium without and in the presence of 0.5, 2.0 and 3.5 μM retinol for 10 passages.
Retinol was selected to be further evaluated in the maintenance of undifferentiated hESCs. […] In the presence of 2.0 μM retinol, the growth of the colonies started earlier and already at day 3 the size of the colonies was bigger (FIG. 10A-10B).

hESC line Regea 07/046 = assay: Activin A: proliferation assay, FACS and qRT-PCR of pluripotency markers; type: cell-based, human
Description: FIG. 11B) Quantitative RT-PCR analysis of Nanog, Oct4, GDF3, DNMT3B, GABRB3 and GDF3 expression in hESC line Regea 07/046 cultured in the present culture medium without and in the presence of 5 ng/ml and 10 ng/ml Activin A and hES control medium for 10 passages. FIG. 11C) FACS analysis of SSEA4 and TRA-1-60 stem cell markers of hESC line Regea 07/046 cultured in the present culture medium without and in the presence of 5 ng/ml and 10 ng/ml Activin A and hES control medium for 10 passages.

[4] = tested on: embryonic stem cell colonies; assay: Effect of fetuin and α-fetoprotein on growth rate and size of embryonic stem cell colonies; type: cell-based; details: human serum albumin 10 mg/ml
Description: All formulations shown contained human serum albumin at a concentration of 10 mg/ml.
The composition of the formulation according to this embodiment of the present invention was further optimized as described above in Table 2.

[5] = in the present culture medium, compared to control hES or Albumax-RegES medium
[6] = in hES culture medium, compared to control hES medium

## CC(C)NCC(O)c1ccc(O)c(O)c1 (racemic) [DL-isoproterenol, reference compound]
hESCs (HS401 cell line); RegES medium, 0.1 mg/ml
  Morphology: ++
hESCs (HS401 cell line); hES medium, 0.1 mg/ml
  Morphology: + (poor morphology, uneven edges in the colonies, thin and/or small colonies)
hESCs (HS401 cell line); in hES culture medium
  morphology (in words): poor morphology and/or excess differentiation
hESCs (HS401 cell line); in the present culture medium
  morphology (in words): satisfying morphology
[1]; [5]
  number of undifferentiated and differentiated colonies: number of undifferentiated colonies increased and the number of differentiated colonies decreased

## CC/C=C\C/C=C\C/C=C\CCCCCCCC(=O)O [Alfa-linoleic acid]
hESCs (HS401 cell line); RegES medium, 5 μg/ml
  Morphology: −/− (excess differentiation of the colonies, poor morphology)
hESCs (HS401 cell line); hES medium, 5 μg/ml
  Morphology: −/− (excess differentiation of the colonies, poor morphology)

## CCCCC/C=C\C/C=C\C/C=C\C/C=C\CCCC(=O)O [Arachidonic acid]
[1]; [6]
  number of undifferentiated and differentiated colonies: number of undifferentiated colonies increased and the number of differentiated colonies decreased

## CC(C)CCC[C@@H](C)[C@H]1CC[C@H]2[C@@H]3CC=C4C[C@@H](O)CC[C@]4(C)[C@H]3CC[C@]12C [Cholesterol]
[1]; [6]
  number of undifferentiated and differentiated colonies: number of undifferentiated colonies increased and the number of differentiated colonies decreased

## CCCCC/C=C\C/C=C\C/C=C\CCCCC(=O)O [Gamma-linoleic acid]
hESCs (HS401 cell line); RegES medium, 2.5 μg/ml
  Morphology: − (excess differentiation of the colonies, poor morphology)
hESCs (HS401 cell line); hES medium, 2.5 μg/ml
  Morphology: ++

## CCCCC/C=C\C/C=C\CCCCCCCC(=O)O [Linoleic acid]
hESCs (HS401 cell line)
  morphology of the undifferentiated colonies (in words): improved the morphology
[1]; [5]
  number of undifferentiated and differentiated colonies: number of undifferentiated colonies increased and the number of differentiated colonies decreased

## NC(=O)c1cccnc1 [Nicotinamide, nicotinamide]
[2]
  effect on undifferentiated growth / number of undifferentiated colonies (in words): promoting their differentiation

## CCCCCC/C=C\CCCCCCCC(=O)O [Palmitoleic acid]
hESCs (HS401 cell line)
  morphology of the undifferentiated colonies (in words): improved the morphology
[1]; [5]
  number of undifferentiated and differentiated colonies: number of undifferentiated colonies increased and the number of differentiated colonies decreased

## CCCCC[C@H](O)/C=C/[C@H]1[C@H](O)CC(=O)[C@@H]1C/C=C\CCCC(=O)O [Prostaglandin E2]
hESCs (HS401 cell line); RegES medium, 50 ng/ml
  Morphology: − (excess differentiation of the colonies, poor morphology)
hESCs (HS401 cell line); hES medium, 50 ng/ml
  Morphology: + (poor morphology, uneven edges in the colonies, thin and/or small colonies)

## CCCCC[C@H](O)/C=C/[C@@H]1[C@@H](C/C=C\CCCC(=O)O)[C@@H](O)C[C@H]1O [Prostaglandin F2]
hESCs (HS401 cell line); RegES medium, 50 ng/ml
  Morphology: ++
hESCs (HS401 cell line); hES medium, 50 ng/ml
  Morphology: − (excess differentiation of the colonies, poor morphology)
hESCs (HS401 cell line); in hES culture medium
  morphology (in words): poor morphology and/or excess differentiation
hESCs (HS401 cell line); in the present culture medium
  morphology (in words): satisfying morphology

## CC1=C(/C=C/C(C)=C/C=C/C(C)=C/CO)C(C)(C)CCC1 [Retinol, retinol]
hESCs (HS401 cell line)
  morphology of the undifferentiated colonies (in words): improved the morphology
[1]; [6]
  number of undifferentiated and differentiated colonies: number of undifferentiated colonies increased and the number of differentiated colonies decreased
[1]; [5]
  number of undifferentiated and differentiated colonies: number of undifferentiated colonies increased and the number of differentiated colonies decreased
[2]; 2 μM
  maintaining stem cells in an undifferentiated state: effective
[2]
  effect on undifferentiated growth / number of undifferentiated colonies (in words): increased the number of undifferentiated colonies considerably
[3]; 2.0 μM and 3.5 μM, qRT-PCR
  Nanog relative expression level: over twentyfold
[3]; 2.0 μM or 3.5 μM, compared to without retinol or 0.5 μM
  proliferation rate: almost two-fold
[3]; 2.0 μM or above
  proliferation of hESCs and expression of hESC specific markers: improved the proliferation of hESCs as well as induced the expression of hESC specific markers
[3]; 2.0 μM, day 3
  size of the colonies: bigger
[3]; 0.1-0.5 μM
  morphology and number of undifferentiated colonies: not effective
[3]; cultured in the presence of retinol
  immunocytochemical staining of Nanog and TRA-1-81: showed expression of stem cell markers Nanog and TRA-1-81

## CCCCCCCCCCCCCCCCCC(=O)O [Stearic acid]
hESCs (HS401 cell line); in hES culture medium
  morphology (in words): poor morphology and/or excess differentiation
hESCs (HS401 cell line); in the present culture medium
  morphology (in words): satisfying morphology
[1]; [5]
  number of undifferentiated and differentiated colonies: number of undifferentiated colonies increased and the number of differentiated colonies decreased

## Activin A: Activin A, growth factor supplement of the culture medium
hESC line Regea 07/046; 5 or 10 ng/ml in the present culture medium, compared to without Activin A
  proliferation rate: almost two-fold
hESC line Regea 07/046; FACS and qRT-PCR, transcriptional and translational level
  expression of pluripotency supporting markers: increased the expression

## Conjugated linoleic acid
hESCs (HS401 cell line); RegES medium, 5 μg/ml
  Morphology: ++
hESCs (HS401 cell line); hES medium, 5 μg/ml
  Morphology: +++ (nice morphology, even, thick and big colonies)
hESCs (HS401 cell line)
  morphology of the undifferentiated colonies (in words): improved the morphology
[1]; [6]
  number of undifferentiated and differentiated colonies: number of undifferentiated colonies increased and the number of differentiated colonies decreased
[1]; [5]
  number of undifferentiated and differentiated colonies: number of undifferentiated colonies increased and the number of differentiated colonies decreased

## Lysophosphatidylcholine
hESCs (HS401 cell line); RegES medium, 5 μg/ml
  Morphology: ++
hESCs (HS401 cell line); hES medium, 5 μg/ml
  Morphology: − (excess differentiation of the colonies, poor morphology)
hESCs (HS401 cell line); in hES culture medium
  morphology (in words): poor morphology and/or excess differentiation
hESCs (HS401 cell line); in the present culture medium
  morphology (in words): satisfying morphology

## Phosphatidylcholine
hESCs (HS401 cell line); RegES medium, 2.5 μg/ml
  Morphology: − (excess differentiation of the colonies, poor morphology)
hESCs (HS401 cell line); hES medium, 2.5 μg/ml
  Morphology: ++
[1]; [6]
  number of undifferentiated and differentiated colonies: number of undifferentiated colonies increased and the number of differentiated colonies decreased

## Phosphatidylethanolamine
hESCs (HS401 cell line); RegES medium, 5 μg/ml
  Morphology: ++
hESCs (HS401 cell line); hES medium, 5 μg/ml
  Morphology: − (excess differentiation of the colonies, poor morphology)
hESCs (HS401 cell line); in hES culture medium
  morphology (in words): poor morphology and/or excess differentiation
hESCs (HS401 cell line); in the present culture medium
  morphology (in words): satisfying morphology

B1: F: Fetuin, commercially available fetal carrier protein (protein, UniProt P12763 19-359, looked up)
Alpha-2-HS-glycoprotein: IPLDPVAGYKEPACDDPDTEQAALAAVDYINKHLPRGYKHTLNQIDSVKVWPRRPTGEVYDIEIDTLETTCHVLDPTPLANCSVRQQTQHAVEGDCDIHVLKQDGQFSVLFTKCDSSPDSAEDVRKLCPDCPLLAPLNDSRVVHAVEVALATFNAESNGSYLQLVEISRAQFVPLPVSVSVEFAVAATDCIAKEVVDPTKCNLLAEKQYGFCKGSVIQKALGGEDVRVTCTLFQTQPVIPQPQPDGAEAEAPSAVPDAAGPTPSAAGPPVASVVVGPSVVAVPLPLHRAHYDLRHTFSGVASVESSSGEAFHVGKTPIVGQPSIPGGPVRLCPGRIRYFKI
[4]
  concentration that increased colony size and growth rate the most: 0.1 mg/mL
